This passage reports inhibition results from US7994204B2, “Binding inhibitor of sphingosine-1-phosphate” (Taisho Pharmaceutical Co., Ltd, priority 2006, dated 2011).

Structures are written as SMILES.

This experiment deals with T1, human Edg-1 (S1P1) (Homo sapiens, UniProt P21453).
T1 construct: expressed in transfected cells; host or cells: HEK-293
T1 sequence (P21453 whole entry): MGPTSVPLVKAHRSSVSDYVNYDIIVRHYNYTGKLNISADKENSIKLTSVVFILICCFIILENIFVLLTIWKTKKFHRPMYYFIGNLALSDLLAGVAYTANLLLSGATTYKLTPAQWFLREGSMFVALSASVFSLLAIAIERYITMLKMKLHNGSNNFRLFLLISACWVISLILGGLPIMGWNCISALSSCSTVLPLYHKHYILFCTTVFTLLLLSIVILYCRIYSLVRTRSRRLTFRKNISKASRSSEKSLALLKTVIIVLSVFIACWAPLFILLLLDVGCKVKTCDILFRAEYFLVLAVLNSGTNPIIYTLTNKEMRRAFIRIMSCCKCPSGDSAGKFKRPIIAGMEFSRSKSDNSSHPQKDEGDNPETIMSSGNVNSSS
Kind of experiment: S1P1 binding inhibition test (membrane, [33P]-S1P). The following applies: compound 10 μM; [33P]-S1P 0.1 nM; human Edg-1 (S1P1) HEK-293 membrane fraction; read-out: Binding test (membrane) % inhibition (10 μM). The protocol:
The membrane fraction was obtained by treating the cells with a solubilizing buffer (1 mM Tris/HCl, pH 7.2) for 10 minutes on ice, centrifuging at 1000×g for 5 minutes to remove insoluble fractions, and then centrifuging at 40000×g for 30 minutes at 4° C. The resulting membrane fraction was dissolved in a binding buffer (20 mM Tris-HCl, pH 7.4, 100 mM NaCl, 15 mM NaF, 2 mM deoxypyridoxine, 4 mg/mL fatty acid-free BSA), and then [^33P]-S1P (manufactured by ARC, final concentration 0.1 nM) and a DMSO solution (final concentration of the compound 10^−5 M, final concentration of DMSO 0.1%) of the test compound were added. Thereafter, the mixture was stirred and then treated for one hour at 30° C. Using a harvester, the membrane fraction was harvested onto unifilter-96 GF/C filter (manufactured by Perkin Elmer), washing was carried out four times with the binding buffer, and the filter was dried. Twenty five μL Microscint 0 (manufactured by Perkin Elmer) was added, and radioactivity was measured using Top Count NXT (manufactured by Packard) to calculate the amount (A) of [^33P]-S1P bound to the membrane fraction at the time when the compound was added.
The same procedure was carried out in the absence of the test compound, and the amount (B) of [^33P]-S1P bound was calculated. Further, the same procedure was carried out in the absence of the test compound by use of HEK-293 cells to which no Edg-1 (S1P1) gene was introduced, and the background amount (C) of [^33P]-S1P bound was calculated.
Inhibition rate (%)=[1−(A−C)/(B−C)]×100.
Moreover, the concentration required for a test compound to produce 50% inhibition of the binding caused in the absence of the test compound was also calculated (IC50). The above membrane system binding test was performed in the presence of a test compound at various concentrations to calculate the inhibition rate of Edg-1(S1P1) binding at each concentration according to the above equation, followed by calculating an IC50 value for each compound with data analysis software, Origin (Lightstone Corp., Japan).
`CCn1c(C(C)NS(=O)(=O)c2ccc(C(C)=O)cc2)cnc1Oc1ccc(C)cc1` (stereo not drawn) [Compound 3]: the inhibition at 10 µM turned out to be 96.7%. The value for `CCn1c(C(C)NS(=O)(=O)c2ccccc2)cnc1Oc1ccc(C)cc1` (stereo not drawn) [Compound 4] was 72.8%; that for `CCn1c(C(C)NS(=O)(=O)c2ccc(Br)cc2)cnc1Oc1ccc(C)cc1` (stereo not drawn) [Compound 5] was 106%.

With `CCn1c(C(C)NS(=O)(=O)c2ccc(C(C)(C)C)cc2)cnc1Oc1ccc(C)cc1` (stereo not drawn) [Compound 6], the inhibition at 10 µM came to 54.7%.

`CCn1c(C(C)NS(=O)(=O)c2ccccc2Br)cnc1Oc1ccc(C)cc1` (stereo not drawn) [Compound 7]: the inhibition at 10 µM came to 63.3%. The figure for `CCn1c(C(C)NS(=O)(=O)c2cccc(Br)c2)cnc1Oc1ccc(C)cc1` (stereo not drawn) [Compound 9] is 113%. The figure for `CCn1c(C(C)NS(=O)(=O)c2ccc(Br)cc2OC(F)(F)F)cnc1Oc1ccc(C)cc1` (stereo not drawn) [Compound 10] is 68.6%; for `CCn1c(C(C)NS(=O)(=O)c2ccc(Cl)cc2)cnc1Oc1ccc(C)cc1` (stereo not drawn) [Compound 11] it is 103%. On to `CCn1c(C(C)NS(=O)(=O)c2ccc(Cl)c3nonc23)cnc1Oc1ccc(C)cc1` (stereo not drawn) [Compound 12], for which the inhibition at 10 µM is 68.1%. The value for `CCn1c(C(C)NS(=O)(=O)c2cccc(C#N)c2)cnc1Oc1ccc(C)cc1` (stereo not drawn) [Compound 13] was 64.4%; that for `CCn1c(C(C)NS(=O)(=O)c2sc3ccc(Cl)cc3c2C)cnc1Oc1ccc(C)cc1` (stereo not drawn) [Compound 14] was 76.5%. The figure for `CCn1c(C(C)NS(=O)(=O)c2ccc(C)c(Cl)c2)cnc1Oc1ccc(C)cc1` (stereo not drawn) [Compound 15] is 108%.

As to `CCn1c(C(C)NS(=O)(=O)c2cc(C)c(Cl)cc2C)cnc1Oc1ccc(C)cc1` (stereo not drawn) [Compound 16], the inhibition at 10 µM is 109%. The figure for `CCn1c(C(C)NS(=O)(=O)c2cc(Cl)ccc2Cl)cnc1Oc1ccc(C)cc1` (stereo not drawn) [Compound 17] is 80%; for `CCn1c(C(C)NS(=O)(=O)c2c(Cl)cccc2Cl)cnc1Oc1ccc(C)cc1` (stereo not drawn) [Compound 18] it is 72.8%; for `CCn1c(C(C)NS(=O)(=O)c2ccc(OC)c(OC)c2)cnc1Oc1ccc(C)cc1` (stereo not drawn) [Compound 19] it is 87.3%. As to `CCc1ccc(S(=O)(=O)NC(C)c2cnc(Oc3ccc(C)cc3)n2CC)cc1` (stereo not drawn) [Compound 21], the inhibition at 10 µM is 66.8%. The figure for `CCn1c(C(C)NS(=O)(=O)c2ccc(F)cc2)cnc1Oc1ccc(C)cc1` (stereo not drawn) [Compound 22] is 92.1%; for `CCn1c(C(C)NS(=O)(=O)c2ccc(OC)cc2)cnc1Oc1ccc(C)cc1` (stereo not drawn) [Compound 23] it is 98.6%; for `CCn1c(C(C)NS(=O)(=O)c2ccc(S(C)(=O)=O)cc2)cnc1Oc1ccc(C)cc1` (stereo not drawn) [Compound 25] it is 62%. For the molecule `CCn1c(C(C)NS(=O)(=O)c2cccc3ccccc23)cnc1Oc1ccc(C)cc1` (stereo not drawn) [Compound 27], the inhibition at 10 µM turned out to be 68.5%.

As for `CCn1c(C(C)NS(=O)(=O)c2ccc3ccccc3c2)cnc1Oc1ccc(C)cc1` (stereo not drawn) [Compound 28], the inhibition at 10 µM worked out at 114%. Consider `CCn1c(C(C)NS(=O)(=O)CCc2cccc3ccccc23)cnc1Oc1ccc(C)cc1` (stereo not drawn) [Compound 29], for which the inhibition at 10 µM was 52.5%. The value for `CCn1c(C(C)NS(=O)(=O)c2c(F)c(F)c(F)c(F)c2F)cnc1Oc1ccc(C)cc1` (stereo not drawn) [Compound 30] was 75.8%. Take `CCn1c(C(C)NS(=O)(=O)c2ccc(I)cc2)cnc1Oc1ccc(C)cc1` (stereo not drawn) [Compound 31]: the inhibition at 10 µM was 93.3%.

As to `CCn1c(C(C)NS(=O)(=O)/C=C/c2ccccc2)cnc1Oc1ccc(C)cc1` (stereo not drawn) [Compound 32], the inhibition at 10 µM turned out to be 93.5%. The value for `CCn1c(C(C)NS(=O)(=O)c2cc(Cl)c(Cl)cc2Cl)cnc1Oc1ccc(C)cc1` (stereo not drawn) [Compound 33] was 115%; that for `CCn1c(C(C)NS(=O)(=O)c2ccc(C)cc2)cnc1Oc1ccc(C)cc1` (stereo not drawn) [Compound 35] was 98.1%; that for `CCn1c(C(C)NS(=O)(=O)c2cccc(C(F)(F)F)c2)cnc1Oc1ccc(C)cc1` (stereo not drawn) [Compound 37] was 98.5%.

On to `CCn1c(C(C)NS(=O)(=O)c2ccccc2C)cnc1Oc1ccc(C)cc1` (stereo not drawn) [Compound 38], for which the inhibition at 10 µM was 79.8%.

As to `CCn1c(C(C)NS(=O)(=O)c2ccc(OC(F)(F)F)cc2)cnc1Oc1ccc(C)cc1` (stereo not drawn) [Compound 39], the inhibition at 10 µM is 64.8%.

For `C=Cc1ccc(S(=O)(=O)NC(C)c2cnc(Oc3ccc(C)cc3)n2CC)cc1` (stereo not drawn) [Compound 40], the inhibition at 10 µM came out at 81.2%. Consider `CCn1c(C(C)NS(=O)(=O)c2cccc(C)c2)cnc1Oc1ccc(C)cc1` (stereo not drawn) [Compound 41], for which the inhibition at 10 µM was 82.3%.

In the case of `CCn1c(C(C)NS(=O)(=O)c2ccc(C(F)(F)F)cc2)cnc1Oc1ccc(C)cc1` (stereo not drawn) [Compound 44], the inhibition at 10 µM turned out to be 93.5%. As to `CCn1c(C(C)NS(=O)(=O)c2cc(C)ccc2C)cnc1Oc1ccc(C)cc1` (stereo not drawn) [Compound 45], the inhibition at 10 µM stood at 85.8%. The figure for `CCn1c(C(C)NS(=O)(=O)c2ccc(-c3csnn3)s2)cnc1Oc1ccc(C)cc1` (stereo not drawn) [Compound 46] is 58.8%; for `CCn1c(C(C)NS(=O)(=O)c2ccc(C(=O)OC)n2C)cnc1Oc1ccc(C)cc1` (stereo not drawn) [Compound 51] it is 93.7%; for `CCCc1ccc(S(=O)(=O)NC(C)c2cnc(Oc3ccc(C)cc3)n2CC)cc1` (stereo not drawn) [Compound 56] it is 57.3%.

On to `CCn1c(C(C)NS(=O)(=O)c2ccc(Cl)c(Cl)c2Cl)cnc1Oc1ccc(C)cc1` (stereo not drawn) [Compound 57], for which the inhibition at 10 µM stood at 103%. The value for `CCn1c(C(C)NS(=O)(=O)c2c(C)c(C)cc(C)c2C)cnc1Oc1ccc(C)cc1` (stereo not drawn) [Compound 58] was 66.4%. The value for `CCn1c(C(C)NS(=O)(=O)c2cccc(Cl)c2Cl)cnc1Oc1ccc(C)cc1` (stereo not drawn) [Compound 59] was 101%. Regarding `CCn1c(C(C)NS(=O)(=O)c2c(C)cccc2Cl)cnc1Oc1ccc(C)cc1` (stereo not drawn) [Compound 60], the inhibition at 10 µM was 64.5%. The figure for `CCn1c(C(C)NS(=O)(=O)c2cc(C(F)(F)F)cc(C(F)(F)F)c2)cnc1Oc1ccc(C)cc1` (stereo not drawn) [Compound 62] is 85.6%. In the case of `CCn1c(C(C)NS(=O)(=O)c2cc(Cl)cc(Cl)c2)cnc1Oc1ccc(C)cc1` (stereo not drawn) [Compound 63], the inhibition at 10 µM was 95.3%. The figure for `CCn1c(C(C)NS(=O)(=O)c2cccc(Cl)c2C)cnc1Oc1ccc(C)cc1` (stereo not drawn) [Compound 64] is 96.7%; for `CCn1c(C(C)NS(=O)(=O)c2ccc(F)c(Cl)c2)cnc1Oc1ccc(C)cc1` (stereo not drawn) [Compound 65] it is 106%; for `CCn1c(C(C)NS(=O)(=O)c2cccc(OC)c2)cnc1Oc1ccc(C)cc1` (stereo not drawn) [Compound 66] it is 89.9%.

Consider `CCn1c(C(C)NS(=O)(=O)c2cc(F)c(Br)cc2F)cnc1Oc1ccc(C)cc1` (stereo not drawn) [Compound 67], for which the inhibition at 10 µM is 84.6%. The value for `CCn1c(C(C)NS(=O)(=O)c2c(C)cc(OC)c(C)c2C)cnc1Oc1ccc(C)cc1` (stereo not drawn) [Compound 68] was 64.7%; that for `CCn1c(C(C)NS(=O)(=O)c2cc(Br)ccc2OC)cnc1Oc1ccc(C)cc1` (stereo not drawn) [Compound 69] was 82.9%. The value for `CCn1c(C(C)NS(=O)(=O)c2cc(F)ccc2C)cnc1Oc1ccc(C)cc1` (stereo not drawn) [Compound 70] was 56.8%; that for `CCn1c(C(C)NS(=O)(=O)c2c(C)c(C)c(C)c(C)c2C)cnc1Oc1ccc(C)cc1` (stereo not drawn) [Compound 71] was 72%; that for `CCn1c(C(C)NS(=O)(=O)c2ccc(Br)c(Br)c2)cnc1Oc1ccc(C)cc1` (stereo not drawn) [Compound 72] was 90.1%. The value for `CCn1c(C(C)NS(=O)(=O)c2cc(C)ccc2OC)cnc1Oc1ccc(C)cc1` (stereo not drawn) [Compound 73] was 74.3%.

On to `CCn1c(C(C)NS(=O)(=O)c2ccc(Cl)c(Cl)c2)cnc1Oc1ccc(C)cc1` (stereo not drawn) [Compound 74, 3,4-Dichloro-N-[1-(3-ethyl-2(4-methylphenoxy)-3H-imidazol-4-yl)-ethyl]-benzenesulfonamide], for which the inhibition at 10 µM amounted to 101%. The value for `CCn1c(C(C)NS(=O)(=O)c2ccc(C#N)cc2)cnc1Oc1ccc(C)cc1` (stereo not drawn) [Compound 76] was 89.3%; that for `CCn1c(C(C)NS(=O)(=O)c2c(Cl)cc(Cl)cc2Cl)cnc1Oc1ccc(C)cc1` (stereo not drawn) [Compound 78] was 66.7%; that for `CCn1c(C(C)NS(=O)(=O)c2ccc(Cl)cc2Cl)cnc1Oc1ccc(C)cc1` (stereo not drawn) [Compound 79] was 90.1%.

On to `CCn1c(C(C)NS(=O)(=O)c2ccc(F)cc2F)cnc1Oc1ccc(C)cc1` (stereo not drawn) [Compound 80], for which the inhibition at 10 µM is 61.2%.

For the molecule `CCn1c(C(C)NS(=O)(=O)c2cc(OC)ccc2OC)cnc1Oc1ccc(C)cc1` (stereo not drawn) [Compound 81], the inhibition at 10 µM is 83.1%.
